Laboratory results: patent US20060148858A1, “1, 2-Azole derivatives with hypoglycemic and hypolipidemic activity” (priority 2002, published 2006)

melting point | SMILES
123 to 124 °C | CCCc1nn(-c2ccc(C(F)(F)F)cn2)cc1CCCOc1nn(-c2ccccc2)cc1CC(=O)O [Example 67, [1-phenyl-3-(3-{3-propyl-1-[5-(trifluoromethyl)-2-pyridinyl]-1H-pyrazol-4-yl}propoxy)-1H-pyrazol-4-yl]acetic acid]
159 to 161 °C | O=C(O)CCc1cc(OCCCc2cn(-c3ccc(C(F)(F)F)cn3)nc2OCc2ccccc2)nn1-c1ccccc1 [Example 71, 3-[3-(3-{3-(benzyloxy)-1-[5-(trifluoromethyl)-2-pyridinyl]-1H-pyrazol-4-yl}propoxy)-1-phenyl-1H-pyrazol-5-yl]propanoic acid]
142 to 143 °C | CCOc1nn(-c2ccc(C(F)(F)F)cn2)cc1CCOc1ccc(CC(=O)O)cc1 [Example 73, [4-(2-{3-ethoxy-1-[5-(trifluoromethyl)-2-pyridinyl]-1H-pyrazol-4-yl}ethoxy)phenyl]acetic acid]
89 to 90 °C | CCOc1nn(-c2ccc(C(F)(F)F)cn2)cc1CCOc1cccc(OC(C)(C)C(=O)O)c1 [Example 74, 2-[3-(2-{3-ethoxy-1-[5-(trifluoromethyl)-2-pyridinyl]-1H-pyrazol-4-yl}ethoxy)phenoxy]-2-methylpropanoic acid]
250 to 251 °C | CCCc1nn(-c2ccc(C(F)(F)F)cn2)cc1CCCCn1cc(CCC(=O)[O-])c(OCC)n1.[Na+] [Example 78, sodium 3-[3-ethoxy-1-(4-{3-propyl-1-[5-(trifluoromethyl)-2-pyridinyl]-1H-pyrazol-4-yl}butyl)-1H-pyrazol-4-yl]propanoate]
121 to 122 °C | CCCc1nn(-c2ccc(C(F)(F)F)cn2)cc1CCCOc1ccc(CC(=O)O)cc1OC [Example 79, [3-methoxy-4-(3-{3-propyl-1-[5-(trifluoromethyl)-2-pyridyl]-1H-pyrazol-4-yl}propoxy)phenyl]acetic acid]
124 to 126 °C | CCCc1nn(-c2ccc(C(F)(F)F)cn2)cc1CCCOc1cc(CC(=O)O)ccc1OC [Example 80, [4-methoxy-3-(3-{3-propyl-1-[5-(trifluoromethyl)-2-pyridinyl]-1H-pyrazol-4-yl}propoxy)phenyl]acetic acid]

More lines, now with the values behind:

SMILES | melting point
CCCc1nn(-c2ccc(C(F)(F)F)cn2)cc1CCCCOc1nn(C)cc1CC(=O)O [Example 61, [1-methyl-3-(4-{3-propyl-1-[5-(trifluoromethyl)-2-pyridinyl]-1H-pyrazol-4-yl}butoxy)-1H-pyrazol-4-yl]acetic acid] | 95 to 97 °C
CCCc1nn(-c2ccc(C(F)(F)F)cn2)cc1CCCCOc1ccc(CCC(=O)O)c(C)c1 [Example 64, 3-[2-methyl-4-(4-{3-propyl-1-[5-(trifluoromethyl)-2-pyridinyl]-1H-pyrazol-4-yl}butoxy)phenyl]propanoic acid] | 105 to 107 °C
CCCc1nn(-c2ccc(C(F)(F)F)cn2)cc1CCCCOc1nn(-c2ccccc2)cc1CC(=O)O [Example 66, [1-phenyl-3-(4-{3-propyl-1-[5-(trifluoromethyl)-2-pyridinyl]-1H-pyrazol-4-yl}butoxy)-1H-pyrazol-4-yl]acetic acid] | 114 to 115 °C
CC(C)c1nn(-c2ccc(C(F)(F)F)cn2)cc1CCCCOc1nn(-c2ccccc2)cc1CC(=O)O [Example 68, [3-(4-{3-isopropyl-1-[5-(trifluoromethyl)-2-pyridinyl]-1H-pyrazol-4-yl}butoxy)-1-phenyl-1H-pyrazol-4-yl]acetic acid] | 119 to 120 °C
COc1cc(OCCCCc2cn(-c3ccc(C(F)(F)F)cn3)nc2C(C)C)ccc1CCC(=O)O [Example 69, 3-[4-(4-{3-isopropyl-1-[5-(trifluoromethyl)-2-pyridinyl]-1H-pyrazol-4-yl}butoxy)-2-methoxyphenyl]propanoic acid] | 125 to 126 °C
CCCc1nn(-c2ccc(C(F)(F)F)cn2)cc1CCCCOc1cc(CCC(=O)O)n(C)n1 [Example 70, 3-[1-methyl-3-(4-{3-propyl-1-[5-(trifluoromethyl)-2-pyridinyl]-1H-pyrazol-4-yl}butoxy)-1H-pyrazol-5-yl]propanoic acid] | 122 to 123 °C
